# Values quoted from earlier work in patent US20180055969A1, “BIPHASIC CERAMIC BONE SUBSTITUTE” (BONE SUPPORT AB, priority 2015, published 2018).
# System: bone resorption
# Settings: times as potent as etidronate
row,Structure (SMILES),potency compared with etidronate
1,"O=P(O)(O)C(Cl)(Cl)P(=O)(O)O [Clodronate, clodronate]",10 times
2,NCCCC(O)(P(=O)(O)O)P(=O)(O)O [alendronate],10-100 times
3,O=P(O)(O)C(Sc1ccc(Cl)cc1)P(=O)(O)O [tiludronate],10 times
4,O=P(O)(O)C(O)(Cn1ccnc1)P(=O)(O)O [zoledronate],up to 10.000 times

# Same assay, conditions: value in parenthesis, etidronate as reference
row,Structure (SMILES),potency relative to etidronate
1,NCCCC(O)(P(=O)(O)O)P(=O)(O)O [alendronate],500
2,CCCCCN(C)CCC(O)(P(=O)(O)O)P(=O)(O)O [ibandronate],1000
3,NCCCCCC(O)(P(=O)(O)O)P(=O)(O)O [neridronate],100
4,CN(C)CCC(O)(P(=O)(O)O)P(=O)(O)O [olpadronate],500
5,NCCC(O)(P(=O)(O)O)P(=O)(O)O [pamidronate],100
6,O=P(O)(O)C(O)(Cc1cccnc1)P(=O)(O)O [risedronate],2000
7,O=P(O)(O)C(O)(Cn1ccnc1)P(=O)(O)O [zoledronate],10000
